# Laboratory results reported in patent US10080739B2, “Aryl imidazoles and their use as anti-cancer agents” (Aptose Biosciences Inc., priority 2003, dated 2018).
# Entries after “also recorded” stand apart in the source; their conditions may differ.
# Assays:
# [1] = test system: panel of 60 human cancer cell lines; experiment: NCI/DTP in vitro anticancer screen, 60 cell lines; type: cell-based; conditions: 60 cell; NCI panel of 60 human cancer cell lines, value per compound (FIG. 10A); read-out: GI50 (growth inhibition by 50%)
# Procedure: (§1) The twenty-three compounds of Formula I shown below were evaluated for their antiproliferative effects in a panel of 60 human cancer cell lines as part of the in vitro anticancer screening services provided by the DTP (Developmental Therapeutics Program) of the US National Cancer Institute (NCI) U.S. National Cancer Institute (NCI) of the National Institutes of Health (NIH) in […], Md.
# (§2) The NCI conducts a standard 48/72 hour 60 cell line assay and an in vitro time course assay as described in Alley et al. (Cancer Res (1988) 48:589). In the standard 60 cell line assay, a minimum of 5 concentrations of the test compound are tested at 10-fold dilutions against 60 cell lines and cell growth is assayed at 48 and 72 hours using a sulphorhodamine B assay. For the time course analysis, tumour cells are treated with the test compound at various time points, then washed and grown in medium free of the test compound until the end of the experiment at 144 hrs. This assay employs 20% FBS to better approximate the minimum c×t (concentrations and times) test compound exposure conditions that are required to achieve activity in vivo. Cell growth is quantified by an MTT assay (similar to the XTT assay described above) and the concentration of the test compound required for growth inhibition is determined. […]
# renal cancer cell lines = experiment: NCI/DTP screen, renal cancer cell lines; type: cell-based; conditions: Homo sapiens; renal cancer cell lines (FIG. 10B)
# Procedure: as §1, §2
# [2] = test system: HT-29 colon adenocarcinoma cells; experiment: cell cycle analysis by flow cytometry; type: cell-based, human; conditions: HT-29 cells starved 3 days, 15 μM or 25 μM for 24 or 48 hours, 10% serum
# Procedure: The effect of treatment with compound 45 on cell cycle progression in HT-29 colon adenocarcinoma cells was examined by flow cytometry (FIG. 22). Values were determined by gate analysis of flow cytometric plots and are presented in FIG. 22 as a percentage of the total cell population, after eliminating doubles. Apoptotic events inferred by the surface area preceding G1 phase. Cells were starved for 3 days, and treated with 15 μM or 25 μM compound 45 for 24 or 48 hours in the presence of 10% serum, followed by flow cytometric analysis.
# [3] = test system: MDA-MB-231 breast adenocarcinoma cells; experiment: morphological changes (vacuoles), MDA-MB-231; type: cell-based, human; conditions: MDA-MB-231 cells, treatment for 24 hours
# Text: These vacuoles are not formed in DMSO- or doxorubicin-treated cells. Moreover, the nuclear membrane is no longer evident in the phase-contrast images of cells treated with compound 45, even though the nucleus is still intact, as shown by DAPI staining.
# AMPK = experiment: kinase profiler, AMPK; type: biochemical, human; conditions: 10 μM compound, 100 μM ATP, mean of % control
# Procedure: (§3) Compound 45 was tested for its ability to function as a kinase inhibitor using the kinase profiler service from Upstate Biotechnologies. The general protocol employed is as follows: recombinant kinases were incubated with specific substrates, 10 mM MgAcetate, and [γ-^33P-ATP]. The reaction was initiated by the addition of MgATP mix. After incubation at room temperature for 40 minutes, the reaction was stopped by the addition of 5 μl of a 3% phosphoric acid solution. 10 μl of the reaction was then spotted on to a P30 filtermat and washed 3 times for 5 min. in 75 mM phosphoric acid and once in methanol prior to drying and scintillation counting. Each reaction was performed in duplicate with 100 μM ATP −/+10 μM compound 45. Results are presented in Table IV and are expressed as the mean of % control (no compound). PI 3-kinase-γ (PI3K-γ) activity was determined with the PIProfiler™ assay, which measures the binding of the GRP1 pleckstrin homology (PH) domain to PIP3, the product of PI3K acting on its physiological substrate PIP2.
# Ax1 = molecular target: T1, Ax1 (Homo sapiens, UniProt P30530); experiment: kinase profiler, Ax1; type: biochemical; conditions: 10 μM compound, 100 μM ATP, mean of % control
# T1 construct: purchased Upstate Biotechnologies (kinase profiler service)
# Procedure: as §3
# BRK = molecular target: T2, BRK (Homo sapiens, UniProt Q13882); experiment: kinase profiler, BRK; type: biochemical; conditions: 10 μM compound, 100 μM ATP, mean of % control
# T2 construct: purchased Upstate Biotechnologies (kinase profiler service)
# Procedure: as §3
# CaMKIV = molecular target: T3, CaMKIV (Homo sapiens, UniProt Q16566); experiment: kinase profiler, CaMKIV; type: biochemical; conditions: 10 μM compound, 100 μM ATP, mean of % control
# T3 construct: purchased Upstate Biotechnologies (kinase profiler service)
# Procedure: as §3
# EGFR = molecular target: T4, EGFR (Homo sapiens, UniProt P00533); experiment: kinase profiler, EGFR; type: biochemical; conditions: 10 μM compound, 100 μM ATP, mean of % control
# T4 construct: purchased Upstate Biotechnologies (kinase profiler service)
# T4 sequence (P00533 25-1210): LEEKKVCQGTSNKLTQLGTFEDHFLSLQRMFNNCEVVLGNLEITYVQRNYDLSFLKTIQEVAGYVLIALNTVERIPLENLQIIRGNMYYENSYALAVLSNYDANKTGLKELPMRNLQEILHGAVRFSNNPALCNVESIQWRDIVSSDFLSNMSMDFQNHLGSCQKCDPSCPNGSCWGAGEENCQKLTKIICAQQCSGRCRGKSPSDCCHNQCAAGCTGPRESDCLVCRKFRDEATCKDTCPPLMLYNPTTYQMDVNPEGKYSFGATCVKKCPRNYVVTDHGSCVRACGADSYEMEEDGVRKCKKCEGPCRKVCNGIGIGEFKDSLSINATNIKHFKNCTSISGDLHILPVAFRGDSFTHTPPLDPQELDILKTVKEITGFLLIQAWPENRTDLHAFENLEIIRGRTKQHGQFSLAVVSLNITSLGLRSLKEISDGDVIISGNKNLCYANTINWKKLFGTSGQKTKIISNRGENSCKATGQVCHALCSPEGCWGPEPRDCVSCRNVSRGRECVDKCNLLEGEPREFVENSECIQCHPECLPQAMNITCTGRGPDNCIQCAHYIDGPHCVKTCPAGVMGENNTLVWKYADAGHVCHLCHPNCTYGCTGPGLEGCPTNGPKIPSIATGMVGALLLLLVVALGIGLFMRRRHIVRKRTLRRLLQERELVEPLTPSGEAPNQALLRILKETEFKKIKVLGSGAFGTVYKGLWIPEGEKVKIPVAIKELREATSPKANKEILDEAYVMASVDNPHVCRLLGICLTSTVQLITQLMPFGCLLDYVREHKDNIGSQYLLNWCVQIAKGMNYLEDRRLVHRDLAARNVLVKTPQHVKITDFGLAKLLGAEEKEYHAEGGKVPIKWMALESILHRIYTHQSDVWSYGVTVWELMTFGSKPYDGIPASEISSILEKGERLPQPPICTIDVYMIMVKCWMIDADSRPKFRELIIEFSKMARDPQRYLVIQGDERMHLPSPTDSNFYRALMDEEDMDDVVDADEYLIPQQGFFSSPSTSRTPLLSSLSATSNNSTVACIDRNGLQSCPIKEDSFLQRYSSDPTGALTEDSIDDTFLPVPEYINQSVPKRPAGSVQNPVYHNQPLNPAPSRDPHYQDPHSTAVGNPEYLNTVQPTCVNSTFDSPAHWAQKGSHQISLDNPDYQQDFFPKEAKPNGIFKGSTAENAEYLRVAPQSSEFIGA
# Procedure: as §3
# Fms = molecular target: T5, Fms (Homo sapiens, UniProt P07333); experiment: kinase profiler, Fms; type: biochemical; conditions: 10 μM compound, 100 μM ATP, mean of % control
# T5 construct: purchased Upstate Biotechnologies (kinase profiler service)
# Procedure: as §3
# IKKβ = molecular target: T6, IKKβ (Homo sapiens, UniProt O14920); experiment: kinase profiler, IKKβ; type: biochemical; conditions: 10 μM compound, 100 μM ATP, mean of % control
# T6 construct: purchased Upstate Biotechnologies (kinase profiler service)
# Procedure: as §3
# MAPK1 = molecular target: T7, MAPK1 (Homo sapiens, UniProt P27361); experiment: kinase profiler, MAPK1; type: biochemical; conditions: 10 μM compound, 100 μM ATP, mean of % control
# T7 construct: purchased Upstate Biotechnologies (kinase profiler service)
# T7 sequence (P27361 whole entry): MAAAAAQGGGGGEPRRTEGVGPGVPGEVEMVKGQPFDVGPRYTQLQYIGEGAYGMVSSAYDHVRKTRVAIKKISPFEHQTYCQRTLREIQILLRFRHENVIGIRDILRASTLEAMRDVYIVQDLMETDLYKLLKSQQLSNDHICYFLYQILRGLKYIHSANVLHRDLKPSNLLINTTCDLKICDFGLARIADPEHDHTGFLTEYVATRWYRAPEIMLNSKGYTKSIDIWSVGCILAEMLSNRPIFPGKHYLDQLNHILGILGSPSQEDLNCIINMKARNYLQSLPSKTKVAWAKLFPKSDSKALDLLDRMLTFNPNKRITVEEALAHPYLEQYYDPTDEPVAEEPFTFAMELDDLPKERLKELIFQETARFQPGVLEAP
# Procedure: as §3
# MAPKAP-K2 = molecular target: T8, MAPKAP-K2 (Homo sapiens, UniProt P49137); experiment: kinase profiler, MAPKAP-K2; type: biochemical; conditions: 10 μM compound, 100 μM ATP, mean of % control
# T8 construct: purchased Upstate Biotechnologies (kinase profiler service)
# Procedure: as §3
# NEK2 = molecular target: T9, NEK2 (Homo sapiens, UniProt P51955); experiment: kinase profiler, NEK2; type: biochemical; conditions: 10 μM compound, 100 μM ATP, mean of % control
# T9 construct: purchased Upstate Biotechnologies (kinase profiler service)
# Procedure: as §3
# PDGFRα = molecular target: T10, PDGFRα (Homo sapiens, UniProt P16234); experiment: kinase profiler, PDGFRα; type: biochemical; conditions: 10 μM compound, 100 μM ATP, mean of % control
# T10 construct: purchased Upstate Biotechnologies (kinase profiler service)
# T10 sequence (P16234 24-1089): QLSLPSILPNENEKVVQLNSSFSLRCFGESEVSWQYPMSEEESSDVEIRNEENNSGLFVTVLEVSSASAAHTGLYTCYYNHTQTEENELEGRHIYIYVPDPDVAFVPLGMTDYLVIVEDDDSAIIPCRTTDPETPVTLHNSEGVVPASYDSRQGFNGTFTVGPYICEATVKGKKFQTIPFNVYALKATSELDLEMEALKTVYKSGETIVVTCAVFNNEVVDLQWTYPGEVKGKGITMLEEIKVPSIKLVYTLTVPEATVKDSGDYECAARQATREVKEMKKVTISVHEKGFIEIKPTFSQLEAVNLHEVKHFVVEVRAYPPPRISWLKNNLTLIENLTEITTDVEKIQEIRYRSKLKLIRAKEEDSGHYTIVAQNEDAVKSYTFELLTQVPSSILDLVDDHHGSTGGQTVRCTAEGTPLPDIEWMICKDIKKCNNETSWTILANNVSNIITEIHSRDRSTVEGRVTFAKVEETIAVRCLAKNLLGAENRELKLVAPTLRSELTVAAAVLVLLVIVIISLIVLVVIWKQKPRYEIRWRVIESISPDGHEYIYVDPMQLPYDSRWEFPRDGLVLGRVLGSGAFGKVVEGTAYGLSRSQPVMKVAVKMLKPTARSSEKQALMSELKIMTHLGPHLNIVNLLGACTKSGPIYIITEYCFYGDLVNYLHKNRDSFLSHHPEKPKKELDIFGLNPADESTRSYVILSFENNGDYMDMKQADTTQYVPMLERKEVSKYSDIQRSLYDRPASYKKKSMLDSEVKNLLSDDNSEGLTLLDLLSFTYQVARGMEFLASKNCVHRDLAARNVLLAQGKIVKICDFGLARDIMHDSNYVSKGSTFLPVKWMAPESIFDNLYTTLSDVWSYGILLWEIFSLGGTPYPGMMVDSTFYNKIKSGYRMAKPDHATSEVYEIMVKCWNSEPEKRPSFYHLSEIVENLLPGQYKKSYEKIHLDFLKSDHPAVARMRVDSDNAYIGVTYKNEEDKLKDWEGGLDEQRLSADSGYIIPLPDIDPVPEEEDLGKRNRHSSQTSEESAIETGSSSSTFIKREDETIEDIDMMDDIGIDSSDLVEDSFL
# Procedure: as §3
# PI3K-β = molecular target: T11, PI3K-β (Homo sapiens, UniProt P42338); experiment: kinase profiler, PI3K-β; type: biochemical; conditions: 10 μM compound, mean of % control
# T11 construct: purchased Upstate Biotechnologies (kinase profiler service)
# T11 sequence (P42338 whole entry): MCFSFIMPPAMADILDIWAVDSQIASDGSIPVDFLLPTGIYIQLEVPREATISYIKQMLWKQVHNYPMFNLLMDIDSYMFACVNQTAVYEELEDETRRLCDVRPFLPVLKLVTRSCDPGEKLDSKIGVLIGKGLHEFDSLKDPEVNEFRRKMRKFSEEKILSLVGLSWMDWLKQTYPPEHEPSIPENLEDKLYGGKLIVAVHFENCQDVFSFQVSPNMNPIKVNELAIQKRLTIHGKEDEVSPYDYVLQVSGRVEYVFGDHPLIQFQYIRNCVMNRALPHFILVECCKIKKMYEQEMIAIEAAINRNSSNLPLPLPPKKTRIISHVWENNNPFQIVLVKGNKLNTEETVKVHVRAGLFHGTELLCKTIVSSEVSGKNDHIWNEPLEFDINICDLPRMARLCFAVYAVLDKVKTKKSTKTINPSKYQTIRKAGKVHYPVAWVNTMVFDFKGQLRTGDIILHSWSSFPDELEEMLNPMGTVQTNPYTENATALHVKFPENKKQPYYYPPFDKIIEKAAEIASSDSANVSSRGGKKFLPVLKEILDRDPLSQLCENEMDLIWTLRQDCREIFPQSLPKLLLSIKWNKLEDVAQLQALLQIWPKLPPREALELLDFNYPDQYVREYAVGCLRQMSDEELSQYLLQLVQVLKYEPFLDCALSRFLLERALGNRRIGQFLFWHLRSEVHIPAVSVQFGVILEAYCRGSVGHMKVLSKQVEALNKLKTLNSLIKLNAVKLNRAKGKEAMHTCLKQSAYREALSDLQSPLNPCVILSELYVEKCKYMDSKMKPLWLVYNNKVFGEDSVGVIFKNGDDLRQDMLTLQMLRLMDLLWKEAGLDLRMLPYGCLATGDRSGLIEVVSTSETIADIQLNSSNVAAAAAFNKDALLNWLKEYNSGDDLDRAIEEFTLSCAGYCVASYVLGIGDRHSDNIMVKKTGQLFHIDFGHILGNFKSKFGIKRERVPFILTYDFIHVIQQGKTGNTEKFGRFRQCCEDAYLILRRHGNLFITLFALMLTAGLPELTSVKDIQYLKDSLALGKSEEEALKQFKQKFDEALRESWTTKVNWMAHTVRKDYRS
# T11 sequence (P27986 whole entry partner): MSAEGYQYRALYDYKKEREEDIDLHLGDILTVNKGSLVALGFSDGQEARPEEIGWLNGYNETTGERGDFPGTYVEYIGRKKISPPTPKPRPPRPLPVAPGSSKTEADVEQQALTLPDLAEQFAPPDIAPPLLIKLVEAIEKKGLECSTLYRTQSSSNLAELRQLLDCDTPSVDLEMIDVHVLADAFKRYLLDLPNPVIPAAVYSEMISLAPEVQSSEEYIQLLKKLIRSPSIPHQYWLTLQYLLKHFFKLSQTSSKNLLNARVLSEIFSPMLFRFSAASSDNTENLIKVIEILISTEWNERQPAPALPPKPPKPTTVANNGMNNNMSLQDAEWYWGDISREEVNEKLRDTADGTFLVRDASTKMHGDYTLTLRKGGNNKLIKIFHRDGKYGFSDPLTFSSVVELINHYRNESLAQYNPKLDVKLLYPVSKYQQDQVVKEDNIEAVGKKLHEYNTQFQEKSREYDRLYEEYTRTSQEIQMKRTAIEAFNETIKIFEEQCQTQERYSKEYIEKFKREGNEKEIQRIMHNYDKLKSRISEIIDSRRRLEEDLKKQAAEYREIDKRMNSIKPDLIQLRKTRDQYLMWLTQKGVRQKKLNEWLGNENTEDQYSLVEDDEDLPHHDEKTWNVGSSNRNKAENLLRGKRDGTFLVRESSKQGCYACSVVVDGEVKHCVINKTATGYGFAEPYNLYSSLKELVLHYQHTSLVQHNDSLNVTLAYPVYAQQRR
# PKCα = molecular target: T12, PKCα (Homo sapiens, UniProt P17252); experiment: kinase profiler, PKCα; type: biochemical; conditions: 10 μM compound, 100 μM ATP, mean of % control
# T12 construct: purchased Upstate Biotechnologies (kinase profiler service)
# Procedure: as §3
# PKCζ = molecular target: T13, PKCζ (Homo sapiens, UniProt Q05513); experiment: kinase profiler, PKCζ; type: biochemical; conditions: 10 μM compound, 100 μM ATP, mean of % control
# T13 construct: purchased Upstate Biotechnologies (kinase profiler service)
# Procedure: as §3
# Plk3 = molecular target: T14, Plk3 (Homo sapiens, UniProt Q9H4B4); experiment: kinase profiler, Plk3; type: biochemical; conditions: 10 μM compound, 100 μM ATP, mean of % control
# T14 construct: purchased Upstate Biotechnologies (kinase profiler service)
# Procedure: as §3
# Ret = molecular target: T15, Ret (Homo sapiens, UniProt P07949); experiment: kinase profiler, Ret; type: biochemical; conditions: 10 μM compound, 100 μM ATP, mean of % control
# T15 construct: purchased Upstate Biotechnologies (kinase profiler service)
# Procedure: as §3
# SAPK4 = molecular target: T16, SAPK4 (Homo sapiens, UniProt O15264); experiment: kinase profiler, SAPK4; type: biochemical; conditions: 10 μM compound, 100 μM ATP, mean of % control
# T16 construct: purchased Upstate Biotechnologies (kinase profiler service)
# Procedure: as §3
# SGK = molecular target: T17, SGK (Homo sapiens, UniProt O00141); experiment: kinase profiler, SGK; type: biochemical; conditions: 10 μM compound, 100 μM ATP, mean of % control
# T17 construct: purchased Upstate Biotechnologies (kinase profiler service)
# Procedure: as §3
# TAK1 = molecular target: T18, TAK1 (Homo sapiens, UniProt O43318); experiment: kinase profiler, TAK1; type: biochemical; conditions: 10 μM compound, 100 μM ATP, mean of % control
# T18 construct: purchased Upstate Biotechnologies (kinase profiler service)
# Procedure: as §3
# TrkA = molecular target: T19, TrkA (Homo sapiens, UniProt P04629); experiment: kinase profiler, TrkA; type: biochemical; conditions: 10 μM compound, 100 μM ATP, mean of % control
# T19 construct: purchased Upstate Biotechnologies (kinase profiler service)
# Procedure: as §3
smiles,measurement,setting,value
Brc1ccc2[nH]cc(-c3nc4c5ccccc5c5ccccc5c4[nH]3)c2c1 [Compound 45],GI50,[1],2000 nM
same,GI50,renal cancer cell lines,1300 nM
same,effect on cell cycle progression,[2],increase of cells in the G1 phase and a decrease in the S and G2/M phases; also recorded: partial arrest in the G0/G1 phase
same,formation of vacuoles,[3],formation of large vacuoles within the cytoplasm
same,% activity,AMPK,100%
same,activity at 10 µM,Ax1,100%
same,activity at 10 µM,BRK,112%
same,activity at 10 µM,CaMKIV,98%
same,activity at 10 µM,EGFR,105%
same,activity at 10 µM,Fms,135%
same,activity at 10 µM,IKKβ,111%
same,activity at 10 µM,MAPK1,85%
same,activity at 10 µM,MAPKAP-K2,119%
same,activity at 10 µM,NEK2,90%
same,activity at 10 µM,PDGFRα,117%
same,activity at 10 µM,PI3K-β,11%
same,activity at 10 µM,PKCα,92%
same,activity at 10 µM,PKCζ,96%
same,activity at 10 µM,Plk3,132%
same,activity at 10 µM,Ret,82%
same,activity at 10 µM,SAPK4,77%
same,activity at 10 µM,SGK,89%
same,activity at 10 µM,TAK1,104%
same,activity at 10 µM,TrkA,56%
